Results on 3 compounds are retold here after US20230279355A1, “METHOD FOR THE IN VITRO OR EX VIVO AMPLIFICATION OF STEM CELLS OF BROWN OR BEIGE ADIPOCYTES” (CENTRE NATIONAL DE LA RECHERCHE SCIENTIFIQUE, priority 2020, published 2023).

Series [1] deals with hECs (endothelial cells of human adipose tissue).
Method: In order to determine the proliferation medium, five mediums, which are generally marketed for the proliferation of human endothelial cells, were tested.
The next series concerns hASCs. The experiment in a line: differentiation of hASCs into adipocytes (PLIN1, UCP1 expression). Type of series: cell-based, human. The method, then: In order to determine the differentiation medium, different media were tested. These media were enriched with adipogenic factors then tested for the differentiation of the hASCs. […] It should also be noted that the medium n° 5 is an option to the EGM+ which has not been pursued further.

The subject of another series is cells in suspension. Conditions: reported; cited from earlier work.
The next series concerns UCP1. Conditions: described in the literature; cited from earlier work.

With `NC(=O)c1ccc(-c2nc(-c3ccc4c(c3)OCO4)c(-c3ccccn3)[nH]2)cc1` [SB431542], the “viability of hECs” value in series [1] is listed as “no consequence upon the viability of hECs”. Also, the “expression of UCP1” value in the series with hASCs (addition of SB431542 and maintenance of Rosiglitazone) is given as “allows the expression of UCP1”. The “differentiation into adipocytes (PLIN1)” value with hASCs (dexamethasone and IBMX removed after the first three days, SB431542 added) is listed as “allows restoring the differentiation”.
Turning to `C[C@@H](N)[C@H]1CC[C@H](C(=O)Nc2ccncc2)CC1` [Y27632], the “cell viability in suspension” value with cells in suspension was “increasing the cell viability in suspension”.
With `C[C@]12CCC(=O)C=C1CC[C@@H]1[C@@H]2[C@@H](O)C[C@@]2(C)[C@H]1CC[C@]2(O)C(=O)CO` [hydrocortisone, Hydrocortisone], the “expression of UCP1” value in the series with UCP1 was “able to inhibit the expression of UCP1”.
